ChEMBL document CHEMBL1133657, “Synthesis and pharmacological characterization of [(125)I]iodomethyllycaconitine ([(125)I]iodo-MLA). A new ligand for the alpha(7) nicotinic acetylcholine receptor” (J Med Chem, 2000)

How the values were obtained:
Rattus norvegicus [1] = organism: Rattus norvegicus; assay: Bmax value(fmol/mg )was evaluated in rat brain using [125I]iodo-MLA
Rattus norvegicus [2] = organism: Rattus norvegicus; assay: Affinity constant Kd(nM) in rat brain cerebral cortex homogenates.
Rattus norvegicus [3] = organism: Rattus norvegicus; assay: Bmax value(fmol/mg protein) was evaluated in rat brain using [3H]MLA

With `CCN1C[C@]2(COC(=O)c3cc([125I])ccc3N3C(=O)C[C@H](C)C3=O)CC[C@H](OC)[C@@]34[C@@H]5C[C@H]6[C@H](OC)[C@@H]5[C@](O)(C[C@@H]6OC)[C@](O)([C@@H](OC)[C@H]23)[C@@H]14` the Bmax (Rattus norvegicus [1]) was 68 fmol/mg.
Work on `[3H]c1cccc(N2C(=O)C[C@H](C)C2=O)c1C(=O)OC[C@@]12CC[C@H](OC)[C@@]34[C@@H]5C[C@H]6[C@H](OC)[C@@H]5[C@](O)(C[C@@H]6OC)[C@](O)([C@@H](OC)[C@H]13)[C@H]4N(CC)C2` [METHYLLYCACONITINE[3H] MLA] yielded a Kd (Rattus norvegicus [2]) of 1.9 nM and a Bmax (Rattus norvegicus [3]) of 65 fmol/mg.
